According to ChEMBL document CHEMBL5154808, “Novel β-Hairpin Antimicrobial Peptides Containing the β-Turn Sequence of -RRRF- Having High Cell Selectivity and Low Incidence of Drug Resistance” (J Med Chem, 2022):
The source made the active and inactive calls. The rule behind the calls is not given here.

How the values were obtained:
[1] = system: Staphylococcus aureus; assay: Antibacterial activity against Staphylococcus aureus ATCC 25923 infected BALB/c mouse assessed as reduction in hepatic inflammatory cell infiltration at 5 to 10 mg/kg, ip measured after 24 hrs by hematoxylin and eosin staining based assay; format: functional, organism-based; settings: dose 5-10 mg/kg
[2] = system: Staphylococcus aureus; assay: Antimicrobial activity against Staphylococcus aureus ATCC 25923 assessed as disruption of biofilm formation measured after 2 hrs by SEM analysis; format: functional, organism-based
[3] = system: Staphylococcus aureus; assay: Antimicrobial activity against Staphylococcus aureus ATCC 25923 assessed as fold change in MIC incubated for 18 hrs in presence of 4.5 mM KCl by CLSI protocol based broth microdilution method relative to control; format: functional
[4] = system: Cell membrane; assay: Induction of cytoplasmic membrane depolarization in […] assessed as increase in fluorescence intensity at 1 to 4 times MIC measured after 1 min by DiSC3-5 dye based fluorescence method; format: subcellular
[5] = system: Staphylococcus aureus; assay: Synergistic antibacterial activity against Staphylococcus aureus ATCC 25923 assessed as fractional inhibitory concentration index incubated for 18 hrs in presence of kanamycin by checker board assay; format: functional
[6] = system: Cell membrane; assay: Induction of outer membrane permeabilization in Pseudomonas aeruginosa ATCC 27853 by NPN fluorescent dye based assay; format: subcellular; settings: DDE = dose-dependent effect
[7] = system: Escherichia coli; assay: Antimicrobial activity against Escherichia coli ATCC 25922 assessed as fold change in MIC incubated for 18 hrs in presence of 4.5 mM KCl by CLSI protocol based broth microdilution method relative to control; format: functional
[8] = system: Escherichia coli; assay: Antimicrobial activity against Escherichia coli ATCC 25922 assessed as fold change in MIC incubated for 18 hrs in presence of 150 mM NaCl by CLSI protocol based broth microdilution method relative to control; format: functional
[9] = system: Lipopolysaccharide (LPS); assay: Binding affinity to LPS (unknown origin) assessed as reduction in bactericidal activity against Escherichia coli ATCC 25922 at 2 times MIC incubated for 2 hrs in presence of 32 ug/ml of LPS by competitive binding assay
[10] = system: Staphylococcus aureus; assay: Antimicrobial activity against Staphylococcus aureus ATCC 25923 assessed as assessed as fold change in MIC incubated for 18 hrs in presence of 4 uM FeCl3 by CLSI protocol based broth microdilution method relative to control; format: functional
[11] = system: Staphylococcus aureus; assay: Antibacterial activity against Staphylococcus aureus ATCC 25923 infected BALB/c mouse assessed as reduction in pulmonary inflammatory cell infiltration at 5 to 10 mg/kg, ip measured after 24 hrs by hematoxylin and eosin staining based assay; format: functional, organism-based; settings: dose 5-10 mg/kg
[12] = Cytotoxicity against human HK-2 cells assessed as reduction in cell viability incubated for 1 hr by resazurin based microplate reader method; format: toxicity
[13] = system: Cell membrane; assay: Induction of cytoplasmic membrane depolarization in Pseudomonas aeruginosa ATCC 27853 assessed as increase in fluorescence intensity at 1 to 4 times MIC measured after 1 min by DiSC3-5 dye based fluorescence method; format: subcellular
[14] = system: Staphylococcus aureus; assay: Antibacterial activity against Staphylococcus aureus ATCC 25923 infected in BALB/c mouse assessed as reduction in bacterial load in lung at 5 to 10 mg/kg, ip measured after 4 to 12 hrs (reference value: 5.6 x 10^6 CFU/g); format: functional; settings: dose 5-10 mg/kg, time 4-12 hrs
[15] = system: Escherichia coli; assay: Synergistic antibacterial activity against Escherichia coli ATCC 25922 assessed as fractional inhibitory concentration index incubated for 18 hrs in presence of polymyxin B by checker board assay; format: functional
[16] = system: Escherichia coli; assay: Antimicrobial activity against Escherichia coli ATCC 25922 assessed as fold change in MIC incubated for 18 hrs in presence of 1 mM MgCl2 by CLSI protocol based broth microdilution method relative to control; format: functional
[17] = system: Cell membrane; assay: Induction of inner membrane permeabilization in Escherichia coli ML-35 ATCC 43587 at 1 to 4 times MIC by ONPG based assay
[18] = system: Escherichia coli; assay: Antimicrobial activity against Escherichia coli ATCC 25922 assessed as morphological changes measured after 4 hrs by SEM analysis; format: functional, organism-based
[19] = system: Staphylococcus aureus; assay: Antimicrobial activity against Staphylococcus aureus ATCC 25923 assessed as reduction of bacterial growth incubated for 18 hrs by CLSI protocol based broth microdilution method; format: functional
[20] = system: Enterococcus faecalis; assay: Antimicrobial activity against Enterococcus faecalis ATCC 29212 assessed as reduction of bacterial growth incubated for 18 hrs by CLSI protocol based broth microdilution method; format: functional
[21] = system: Staphylococcus aureus; assay: Antimicrobial activity against Staphylococcus aureus ATCC 25923 assessed as fold change in MIC incubated for 18 hrs in presence of 1 mM MgCl2 by CLSI protocol based broth microdilution method relative to control; format: functional
[22] = system: Bacillus subtilis; assay: Antimicrobial activity against Bacillus subtilis ATCC 23857 assessed as reduction of bacterial growth incubated for 18 hrs by CLSI protocol based broth microdilution method; format: functional
[23] = system: Escherichia coli; assay: Antimicrobial activity against Escherichia coli ATCC 25922 assessed as reduction of bacterial growth incubated for 18 hrs by CLSI protocol based broth microdilution method; format: functional
[24] = system: Cell membrane; assay: Induction of cytoplasmic membrane depolarization in Staphylococcus aureus ATCC 25923 assessed as increase in fluorescence intensity at 1 to 4 times MIC measured after 1 min by DiSC3-5 dye based fluorescence method; format: subcellular; settings: DDE = dose-dependent effect
[25] = system: Cell membrane; assay: Induction of outer membrane permeabilization in Escherichia coli ATCC 25922 by NPN fluorescent dye based assay; format: subcellular; settings: DDE = dose-dependent effect
[26] = Acute toxicity in ip dosed Kunming mouse assessed as lethal dose; format: organism-based; settings: in vivo
[27] = system: Escherichia coli; assay: Antimicrobial activity against Escherichia coli ATCC 25922 assessed as reduction of bacterial growth at 2 times MIC incubated for 18 hrs in presence of chymotrypsin by CLSI protocol based broth microdilution method; format: functional, organism-based
[28] = Stability in mouse serum assessed as drug degradation by measuring retention time at 10 mM measured upto 360 mins by RP-HPLC analysis; format: ADME, cell-free; settings: 6 h, 10000 µM
[29] = system: Staphylococcus aureus; assay: Antimicrobial activity against rifampicin-resistant Staphylococcus aureus ATCC 25923; format: functional
[30] = system: Escherichia coli; assay: Synergistic antibacterial activity against meropenem-resistant Escherichia coli ATCC 25922 assessed as fractional inhibitory concentration index incubated for 18 hrs in presence of meropenem by checker board assay; format: functional
[31] = system: Staphylococcus aureus; assay: Antimicrobial activity against kanamycin-resistant Staphylococcus aureus ATCC 25923; format: functional
[32] = system: Escherichia coli; assay: Antimicrobial activity against Escherichia coli ATCC 25922 assessed as fold change in MIC incubated for 18 hrs in presence of 10% serum by CLSI protocol based broth microdilution method relative to control; format: functional
[33] = system: Staphylococcus aureus; assay: Antimicrobial activity against Staphylococcus aureus ATCC 25923 assessed as fold change in MICincubated for 18 hrs in presence of 150 mM NaCl by CLSI protocol based broth microdilution method relative to control; format: functional
[34] = system: Staphylococcus aureus; assay: Antimicrobial activity against Staphylococcus aureus ATCC 25923 assessed as reduction of bacterial growth at 2 times MIC incubated for 18 hrs in presence of chymotrypsin by CLSI protocol based broth microdilution method; format: functional, organism-based
[35] = system: Erythrocyte; assay: Hemolytic activity in mouse red blood cells assessed as release of hemoglobin incubated for 1 hr by microplate reader method; format: toxicity, cell-based
[36] = system: Escherichia coli; assay: Antimicrobial activity against Escherichia coli ATCC 25922 assessed as fold change in MIC incubated for 18 hrs in presence of 4 uM FeCl3 by CLSI protocol based broth microdilution method relative to control; format: functional

Substance | Activity [1] | Activity [2] | fold change (FC) [3] | Activity [4] | fractional inhibitory concentration index (FICI) [5] | Activity [6] | fold change (FC) [7] | fold change (FC) [8] | Activity [9] | fold change (FC) [10] | Activity [11] | CC50 at 1 h [12] [µM] | Activity [13] | Activity [14] [CFU/g] | fractional inhibitory concentration index (FICI) [15] | fold change (FC) [16] | Activity [17] | Activity [18] | MIC [19] [µM] | MIC [20] [µM] | also measured
H-KWKWKRRRFKWKWK-NH2 | Active | Active | 1 | Active | 0.5 | Dde | 1 | 1 | Active | 1 | Active | > 128 | Active | 0 | 0.375 | 1 | Active | Active | 8 | 16 | fold change (FC) [21]: 1; MIC [22]: 4 µM; MIC [23]: 8 µM; Activity [24]: Dde; Activity [25]: Dde; LD50 [26]: 62.2 mg/kg; Activity [27]: Active; Retention_time [28]: 11.505 min; MIC [29]: 4 µM; fractional inhibitory concentration index (FICI) [30]: 1.25; MIC [31]: 4 µM; fold change (FC) [32]: 1; fold change (FC) [33]: 2; Activity [34]: Active; HC10 [35]: > 256 µM; fold change (FC) [36]: 1
H-RIRIRRRRFRIRIR-NH2 | Active | Active | 1 | Active | 0.5625 | Dde | 2 | 4 | Active | 1 | Active | 65.2 | Active | 0 | 0.5 | 1 | Active | Active | 4 | 8 | fold change (FC) [21]: 2; MIC [22]: 2 µM; MIC [23]: 4 µM; Activity [24]: Dde; Activity [25]: Dde; LD50 [26]: 77.1 mg/kg; Activity [27]: Active; Retention_time [28]: 10.623 min; MIC [29]: 4 µM; fractional inhibitory concentration index (FICI) [30]: 0.75; MIC [31]: 4 µM; fold change (FC) [32]: 1; fold change (FC) [33]: 2; Activity [34]: Active; HC10 [35]: > 256 µM; fold change (FC) [36]: 2
